In patent US10807982B2, “Bromodomain inhibitors” (CELGENE QUANTICEL RESEARCH, INC., priority 2015, dated 2020):
pIC50: −log10 of the molar value.

What was measured:
BRD4(BD1) = BRD4(BD1) (Homo sapiens (Human), UniProt O60885); experiment: In vitro enzyme inhibition assay (BRD4 AlphaScreen, H4-tetraacetyl peptide); type: binding; details: BRD4(BD1) 2 nM, peptide 15 nM
Method in brief: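 His-tagged BRD4(BD1), 2 nM, with 15 nM biotinylated H4K5/8/12/16(Ac) peptide in HEPES pH 7.3 buffer, 0.4% DMSO, 20 min RT with compound. Streptavidin donor and Ni-chelate acceptor beads (5 μg/mL) then equilibrated 2 h. AlphaScreen signal; IC50 by four-parameter fit.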

[1] = test system: Raji, human Burkitts lymphoma cells; experiment: Cell-MTS cellular proliferation assay, Raji; type: cell-based; details: Homo sapiens, 168 hr incubation
Method in brief: (§1)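 Cells seeded to reach ~90% confluence at 7 days (Raji 15,000, HL-60 5,000, NCI-H460 3,000 per well); 11-point compound dilution, 100 µM to 2.0 nM final, added 24 h after plating. Exposure 168 hr at 37 °C, 5% CO2; MTS read at OD490. IC50 from background-subtracted OD490 normalized to DMSO controls.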

[2] = test system: HL-60, human proleukemia cells; experiment: Cell-MTS cellular proliferation assay, HL-60; type: cell-based; details: Homo sapiens, HL-60 cells, 168 hr incubation
Method in brief: as §1

[3] = test system: NCI-H460, human non-small cell lung cancer cells; experiment: Cell-MTS cellular proliferation assay, NCI-H460; type: cell-based; details: Homo sapiens, 168 hr incubation
Method in brief: as §1

Row | pIC50 (BRD4(BD1)) | pIC50 [1] | pIC50 [2] | pIC50 [3] | SMILES
1 | ≥ 6.30 | ≥ 6.30 | ≥ 6.30 | < 5.30 | CCS(=O)(=O)Nc1cc(-c2cc(OC)c(=O)n(C)c2)c2oc(C3CCCC3)nc2c1 [Example 57, N-[2-cyclopentyl-7-(5-methoxy-1-methyl-6-oxopyridin-3-yl)-1,3-benzoxazol-5-yl]ethanesulfonamide]
2 | ≥ 6.30 | ≥ 6.30 | ≥ 6.30 | < 5.30 | Cc1cc(-c2cc3c(S(C)(=O)=O)nn(C)c3cc2OCC2CC2)cn(C)c1=O [Example 58, 5-[6-(cyclopropylmethoxy)-1-methyl-3-methylsulfonylindazol-5-yl]-1,3-dimethylpyridin-2-one]
3 | ≥ 6.30 | ≥ 6.30 | ≥ 6.30 | < 5.30 | COc1cc(-c2cc3c(S(C)(=O)=O)nn(C)c3cc2OCC2CC2)cn(C)c1=O [Example 59, 5-[6-(cyclopropylmethoxy)-1-methyl-3-methylsulfonylindazol-5-yl]-3-methoxy-1-methylpyridin-2-one]
4 | ≥ 6.30 | ≥ 6.30 | ≥ 6.30 | < 5.30 | Cc1cc(-c2cc3c(nc(C)n3Cc3ccc(F)cc3)c(NS(C)(=O)=O)n2)cn(C)c1=O [Example 60, N-[6-(1,5-dimethyl-6-oxopyridin-3-yl)-1-[(4-fluorophenyl)methyl]-2-methylimidazo[4,5-c]pyridin-4-yl]methanesulfonamide]
5 | ≥ 6.30 | ≥ 6.30 | ≥ 6.30 | < 5.30 | Cc1cc(-c2cc3c(nc(C)n3Cc3ccccc3)c(NS(C)(=O)=O)n2)cn(C)c1=O [Example 61, N-[1-benzyl-6-(1,5-dimethyl-6-oxopyridin-3-yl)-2-methylimidazo[4,5-c]pyridine-4-yl]methanesulfonamide]
6 | ≥ 6.30 | ≥ 6.30 | ≥ 6.30 | < 5.30 | Cc1cc(-c2cc3c(nc(C)n3Cc3ccc(F)cc3F)c(NS(C)(=O)=O)n2)cn(C)c1=O [Example 62, N-[1-[(2,4-difluorophenyl)methyl]-6-(1,5-dimethyl-6-oxopyridin-3-yl)-2-methylimidazo[4,5-c]pyridin-4-yl]methanesulfonamide]
7 | ≥ 6.30 | ≥ 6.30 | ≥ 6.30 | < 5.30 | Cc1cc(-c2cc(NS(C)(=O)=O)c3c(F)nn(Cc4ccc(F)cc4)c3c2)cn(C)c1=O [Example 64, N-[6-(1,5-dimethyl-6-oxopyridin-3-yl)-3-fluoro-1-[(4-fluorophenyl)methyl]indazol-4-yl]methanesulfonamide]
8 | ≥ 6.30 | ≥ 6.30 | ≥ 6.30 | < 5.30 | COc1cc(-c2cc(NS(C)(=O)=O)c3c(F)nn(Cc4ccc(F)cc4)c3c2)cn(C)c1=O [Example 65, N-[3-fluoro-1-[(4-fluorophenyl)methyl]-6-(5-methoxy-1-methyl-6-oxopyridin-3-yl)indazol-4-yl]methanesulfonamide]
9 | ≥ 6.30 | ≥ 6.30 | ≥ 6.30 | < 5.30 | Cc1cc(-c2cc(NS(C)(=O)=O)c3c(F)nn(CC4CC4)c3c2)cn(C)c1=O [Example 66, N-[1-(cyclopropylmethyl)-6-(1,5-dimethyl-6-oxopyridin-3-yl)-3-fluoroindazol-4-yl]methanesulfonamide]
10 | ≥ 6.30 | ≥ 6.30 | ≥ 6.30 | < 5.30 | Cc1cc(-c2cc(S(C)(=O)=O)c3nc(C)n(Cc4ccccc4)c3c2)cn(C)c1=O [Example 67, 5-(3-benzyl-2-methyl-7-methylsulfonylbenzimidazol-5-yl)-1,3-dimethylpyridin-2-one]
11 | ≥ 6.30 | 5.30 to 6.30 | 5.30 to 6.30 | < 5.30 | CCS(=O)(=O)c1cc(-c2cc(OC)c(=O)n(C)c2)cc2c1nc(C)n2Cc1ccccc1 [Example 68, 5-(3-benzyl-7-ethylsulfonyl-2-methylbenzimidazol-5-yl)-3-methoxy-1-methylpyridin-2-one]
12 | ≥ 6.30 | < 5.30 | 5.30 to 6.30 | < 5.30 | Cc1cc(-c2cc(S(C)(=O)=O)c3nc(C)n(CC4CC4)c3c2)cn(C)c1=O [Example 71, 5-[3-(cyclopropylmethyl)-2-methyl-7-methylsulfonylbenzimidazol-5-yl]-1,3-dimethylpyridin-2-one]
13 | ≥ 6.30 | ≥ 6.30 | ≥ 6.30 | 5.30 to 6.30 | CCOc1nc2c(NS(C)(=O)=O)cc(-c3cc(C)c(=O)n(C)c3)cc2n1CC1CC1 [Example 72, N-[1-(cyclopropylmethyl)-6-(1,5-dimethyl-6-oxopyridin-3-yl)-2-ethoxybenzimidazol-4-yl]methanesulfonamide]
14 | ≥ 6.30 | ≥ 6.30 | ≥ 6.30 | 5.30 to 6.30 | COc1nc2c(NS(C)(=O)=O)cc(-c3cc(C)c(=O)n(C)c3)cc2n1CC1CC1 [Example 73, N-[1-(cyclopropylmethyl)-6-(1,5-dimethyl-6-oxopyridin-3-yl)-2-methoxybenzimidazol-4-yl]methanesulfonamide]
15 | ≥ 6.30 | ≥ 6.30 | ≥ 6.30 | ≥ 6.30 | Cn1cc(-c2cc(NS(C)(=O)=O)cc3cc(C4CC4)oc23)c2ccccc2c1=O [Example 79, N-[2-cyclopropyl-7-(2-methyl-1-oxoisoquinolin-4-yl)-1-benzofuran-5-yl]methanesulfonamide]
16 | ≥ 6.30 | ≥ 6.30 | ≥ 6.30 | 5.30 to 6.30 | Cc1cc(-c2cc(NS(C)(=O)=O)cc3cc(C4CC4)oc23)cn(C)c1=O [Example 80, N-[2-cyclopropyl-7-(1,5-dimethyl-6-oxopyridin-3-yl)-1-benzofuran-5-yl]methanesulfonamide]
17 | ≥ 6.30 | ≥ 6.30 | ≥ 6.30 | ≥ 6.30 | CCS(=O)(=O)Nc1cc(-c2cn(C)c(=O)c3ccccc23)c2oc(C3CC3)cc2c1 [Example 82, N-[2-cyclopropyl-7-(2-methyl-1-oxoisoquinolin-4-yl)-1-benzofuran-5-yl]ethanesulfonamide]
18 | ≥ 6.30 | 5.30 to 6.30 | 5.30 to 6.30 | 5.30 to 6.30 | Cc1cc(-c2cc(NS(C)(=O)=O)cc3cc(-c4ccccc4)oc23)cn(C)c1=O [Example 83, N-[7-(1,5-dimethyl-6-oxopyridin-3-yl)-2-phenyl-1-benzofuran-5-yl]methane-sulfonamide]
19 | ≥ 6.30 | ≥ 6.30 | ≥ 6.30 | ≥ 6.30 | Cn1cc(-c2cc(NS(C)(=O)=O)cc3cc(-c4ccccc4)oc23)c2ccccc2c1=O [Example 84, N-[7-(2-methyl-1-oxoisoquinolin-4-yl)-2-phenyl-1-benzofuran-5-yl]methanesulfonamide]
20 | ≥ 6.30 | 5.30 to 6.30 | ≥ 6.30 | < 5.30 | Cc1cc(-c2cc(S(C)(=O)=O)ccc2OCC2CC2)c2n(c1=O)CCC2 [Example 85, 8-[2-(cyclopropylmethoxy)-5-methylsulfonylphenyl]-6-methyl-2,3-dihydro-1H-indolizin-5-one]
21 | ≥ 6.30 | ≥ 6.30 | ≥ 6.30 | < 5.30 | Cc1cc(-c2cc(NS(C)(=O)=O)ccc2Oc2ccc(F)cc2F)c2n(c1=O)CCC2 [Example 86, N-[4-(2,4-difluorophenoxy)-3-(6-methyl-5-oxo-2,3-dihydro-1H-indolizin-8-yl)phenyl]methanesulfonamide]
22 | ≥ 6.30 | ≥ 6.30 | ≥ 6.30 | < 5.30 | Cc1cc(-c2cc(S(C)(=O)=O)ccc2OCC2CC2)c2n(c1=O)CC(C)(C)C2 [Example 87, 8-[2-(cyclopropylmethoxy)-5-methylsulfonylphenyl]-2,2,6-trimethyl-1,3-dihydroindolizin-5-one]
23 | ≥ 6.30 | ≥ 6.30 | ≥ 6.30 | < 5.30 | Cc1cc(-c2cc(NS(C)(=O)=O)ccc2Oc2ccc(F)cc2F)c2n(c1=O)CC(C)(C)C2 [Example 88, N-[4-(2,4-difluorophenoxy)-3-(2,2,6-trimethyl-5-oxo-1,3-dihydroindolizin-8-yl)phenyl]methanesulfonamide]
24 | ≥ 6.30 | ≥ 6.30 | ≥ 6.30 | < 5.30 | COc1cc(-c2cc3c(S(C)(=O)=O)cccc3n2CCC2CC2)cn(C)c1=O [Example 91, 5-[1-(2-cyclopropylethyl)-4-methylsulfonylindol-2-yl]-3-methoxy-1-methylpyridin-2-one]
25 | ≥ 6.30 | ≥ 6.30 | ≥ 6.30 | 5.30 to 6.30 | Cc1cc(-c2cc(NS(C)(=O)=O)c3nc(C(F)(F)F)n(CC4CC4)c3c2)cn(C)c1=O [Example 92, N-[1-(cyclopropylmethyl)-6-(1,5-dimethyl-6-oxopyridin-3-yl)-2-(trifluoromethyl)benzimidazol-4-yl]methanesulfonamide]
26 | ≥ 6.30 | ≥ 6.30 | ≥ 6.30 | < 5.30 | COc1cc(-c2cc(NS(C)(=O)=O)c3nc(C(F)(F)F)n(CC4CC4)c3c2)cn(C)c1=O [Example 93, N-[1-(cyclopropylmethyl)-6-(5-methoxy-1-methyl-6-oxopyridin-3-yl)-2-(trifluoromethyl)benzimidazol-4-yl]methanesulfonamide]
